Usually GI50 stands for the concentration at which growth is held to half of that of the control. In general, TGI refers to the concentration giving total growth inhibition. High values mean lower sensitivity of the cells, low ones greater sensitivity of the cells.

Test systems include SK-MEL-5 melanoma; MALME-3M melanoma; SNB-19 CNS; SN12C renal; SK-MEL-28 melanoma; NCI-H522 lung; HS 578T breast; SR leukemia; U251 CNS; CCRF-CEM leukemia.
Assay in all cases: DTP human tumour cell line panel, 48 h

Molecules are shown by their SMILES. Several values for one entry are separate records, joined by “and”; a condition that tells them apart may be missing. Equal entries are not always repeated.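 Values below derive from 48-hour exposures of cells grown in 96-well plates, with endpoints linearly interpolated between the two concentrations bracketing the appropriate inhibition level. The concentration for 50% growth inhibition is given as GI50. The concentration for full growth arrest is given as TGI.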

On to `COC(=O)Nc1nc2cc3c(cc2s1)OCCO3`, for which the GI50 in the assay with SK-MEL-5 melanoma was above 50 µM; in the assay with MALME-3M melanoma it was above 50 µM; in the assay with SNB-19 CNS, above 50 µM; with SN12C renal, above 50 µM; with SK-MEL-28 melanoma it was above 50 µM; in the assay on NCI-H522 lung, above 50000 nM. Further, the GI50 in the assay with HS 578T breast was above 50 µM; in the assay with SR leukemia it was above 50 µM; in the assay on U251 CNS it was above 50000 nM; with CCRF-CEM leukemia it was above 50000 nM. Also, the TGI with SK-MEL-5 melanoma, in the assay with MALME-3M melanoma, with SNB-19 CNS, with SN12C renal, with SK-MEL-28 melanoma and in the assay with NCI-H522 lung was above 50 µM each time. The TGI with HS 578T breast, in the assay with SR leukemia, in the assay on U251 CNS and in the assay on CCRF-CEM leukemia was above 50 µM each time.

For `O=C1/C(=C/c2ccccc2)CCC/C1=C\c1ccccc1`, the GI50 in the assay on SK-MEL-5 melanoma is 6.75 µM and 6.37 µM; in the assay on MALME-3M melanoma, 6.54 µM and 21 µM; with SNB-19 CNS, 6 µM and 12.2 µM; in the assay with SN12C renal, 7.33 µM; in the assay on SK-MEL-28 melanoma, 6.84 µM and 18.9 µM; in the assay on NCI-H522 lung, 6460 nM and 13700 nM and 15700 nM. The GI50 in the assay on HS 578T breast is 43.2 µM; with SR leukemia it was 10.8 µM and 3.16 µM; in the assay on U251 CNS it was 3330 nM; with CCRF-CEM leukemia, 18500 nM. The TGI was 12 µM and 26.4 µM and 19.6 µM with SK-MEL-5 melanoma; 11.9 µM and 33.3 µM and 59.7 µM in the assay with MALME-3M melanoma; 10.9 µM and 29 µM and 31 µM in the assay on SNB-19 CNS; 12.6 µM and 32.8 µM and 34.9 µM in the assay on SN12C renal; 12.3 µM and 32.7 µM and 38.2 µM with SK-MEL-28 melanoma; 11.8 µM and 31.8 µM and 35 µM in the assay with NCI-H522 lung. Further, the total growth inhibition concentration (TGI) in the assay on HS 578T breast was 28.1 µM and > 100 µM; with SR leukemia, 36.5 µM and > 64.3 µM and 7.58 µM; with U251 CNS, 11.5 µM and 14.8 µM and 12.9 µM; in the assay with CCRF-CEM leukemia it was 36.5 µM and 51.1 µM and > 100 µM.

For the compound `C=C1CCC2C3(C)COC(c4ccc(SC)cc4)OC3CCC2(C)C1C/C=C1/C(=O)OCC1O` (stereo not drawn), the GI50 in the assay with SK-MEL-5 melanoma is 6.85 µM; in the assay with MALME-3M melanoma, 14.9 µM; in the assay on SNB-19 CNS, 16.8 µM; in the assay on SN12C renal, 3.94 µM; in the assay with SK-MEL-28 melanoma, 8.67 µM; in the assay with NCI-H522 lung it was 1920 nM. Also, the GI50 was 5.17 µM in the assay with HS 578T breast, 2.53 µM with SR leukemia, 2290 nM in the assay on U251 CNS and 2920 nM with CCRF-CEM leukemia. Besides, the TGI came to 19.4 µM in the assay on SK-MEL-5 melanoma; 32.1 µM in the assay on MALME-3M melanoma; 30.6 µM in the assay on SNB-19 CNS; 18.6 µM with SN12C renal; 21.1 µM in the assay on SK-MEL-28 melanoma; 5.98 µM with NCI-H522 lung. Besides, the TGI with HS 578T breast was determined as 17 µM; with SR leukemia it was 8.04 µM; in the assay on U251 CNS it was 5.7 µM; in the assay with CCRF-CEM leukemia, 13.7 µM.

On to `CC(=O)OC1CCC2(C)C(=CCC3C2CCC2(C)C(C(C)C(=O)O)CCC32)C1` (stereo not drawn), for which the TGI in the assay with SK-MEL-5 melanoma, in the assay with MALME-3M melanoma, with SNB-19 CNS, with SN12C renal, with SK-MEL-28 melanoma and in the assay with NCI-H522 lung was above 100 µM in each case. Also, the TGI in the assay on HS 578T breast, with SR leukemia, with U251 CNS and in the assay on CCRF-CEM leukemia was above 100 µM each time.

For `CCC1CC(=O)N(SCC(N)C(=O)O)C1=O` (stereo not drawn), the TGI in the assay on SK-MEL-5 melanoma, with MALME-3M melanoma, in the assay with SNB-19 CNS, with SN12C renal, with SK-MEL-28 melanoma and in the assay on NCI-H522 lung was above 100 µM throughout. Besides, the TGI in the assay with HS 578T breast, in the assay with SR leukemia, in the assay with U251 CNS and with CCRF-CEM leukemia was above 100 µM in each case.

For `CC[CH2][Sn]([Cl])([Cl])[CH2]CC`, the GI50 with SK-MEL-5 melanoma was 10.6 µM; in the assay on MALME-3M melanoma it was 1.55 µM; in the assay with SNB-19 CNS, 13.2 µM; in the assay on SN12C renal, 7.08 µM; with SK-MEL-28 melanoma, 11.4 µM; with NCI-H522 lung, 354 nM. Moreover, the GI50 in the assay on HS 578T breast is 6.13 µM; in the assay with SR leukemia, 3.38 µM; in the assay with U251 CNS, 3900 nM; in the assay with CCRF-CEM leukemia, 1240 nM. Also, the TGI in the assay with SK-MEL-5 melanoma is 22.6 µM; with MALME-3M melanoma, 4.91 µM; in the assay on SNB-19 CNS it was 25.9 µM; in the assay with SN12C renal, 20.2 µM; in the assay with SK-MEL-28 melanoma, 23.7 µM; in the assay on NCI-H522 lung, 1.62 µM. Moreover, the TGI is 28.4 µM with HS 578T breast, 80.7 µM in the assay with SR leukemia, 16.5 µM with U251 CNS and above 100 µM in the assay with CCRF-CEM leukemia.

`O=C(NNC(=O)c1ccncc1)c1ccncc1`: the TGI in the assay with SK-MEL-5 melanoma, with MALME-3M melanoma, in the assay with SNB-19 CNS, in the assay with SN12C renal, with SK-MEL-28 melanoma and with NCI-H522 lung was above 100 µM in each case. Also, the TGI with HS 578T breast, in the assay on SR leukemia, in the assay on U251 CNS and in the assay on CCRF-CEM leukemia was above 100 µM throughout.

Turning to `COc1ccc(/C=C\c2cc(OC)c(OC)c(OC)c2)cc1OC(=O)c1cccc(Cn2cc(CCOC(=O)c3cccc(Cn4nnc5c4C(=O)c4ccccc4C5=O)c3)nn2)c1`, the GI50 in the assay on SK-MEL-5 melanoma was below 0.01 µM; in the assay with MALME-3M melanoma, 0.178 µM; in the assay on SN12C renal, below 0.0173 µM; with SK-MEL-28 melanoma, 11.7 µM; in the assay on NCI-H522 lung, 10.2 nM; with HS 578T breast, below 0.01 µM. Further, the values for the GI50 with SR leukemia, in the assay with U251 CNS and in the assay with CCRF-CEM leukemia were below 0.01 µM, below 10 nM and below 10 nM, respectively. Also, the TGI in the assay with SK-MEL-5 melanoma is 0.0474 µM; with MALME-3M melanoma it was above 71.3 µM; in the assay on SNB-19 CNS, 30.6 µM; with SN12C renal, above 100 µM; with SK-MEL-28 melanoma it was above 75.7 µM; with HS 578T breast, 21.4 µM. Besides, the TGI with SR leukemia, in the assay with U251 CNS and in the assay on CCRF-CEM leukemia was above 100 µM throughout.

As to `O=C(c1cccs1)c1c(C(F)(F)F)n([O-])c2ccc(F)cc2[n+]1=O`, the GI50 in the assay with SK-MEL-5 melanoma is 1.22 µM; in the assay with MALME-3M melanoma, 0.669 µM; in the assay with SNB-19 CNS, 1.38 µM; with SN12C renal it was 1.58 µM; in the assay on SK-MEL-28 melanoma it was 1.52 µM; in the assay on NCI-H522 lung, 1460 nM. The GI50 is 1.67 µM in the assay on HS 578T breast, 0.148 µM with SR leukemia, 1310 nM with U251 CNS and 662 nM with CCRF-CEM leukemia. Further, the TGI in the assay on SK-MEL-5 melanoma amounted to 2.51 µM; in the assay on MALME-3M melanoma, 2.25 µM; with SNB-19 CNS it was 2.86 µM; in the assay on SN12C renal, 4.33 µM; with SK-MEL-28 melanoma, 2.86 µM; with NCI-H522 lung, 2.88 µM. Further, the TGI was 6.71 µM with HS 578T breast, 0.558 µM with SR leukemia, 2.6 µM in the assay on U251 CNS and 1.98 µM with CCRF-CEM leukemia.
